The text below walks through data of patent publication US20070224167A1, “Novel HCV inhibitor combinations and methods” (priority 2006, published 2007).

Assay [1] deals with GAPDH RNA, Huh7-1a replicon cells. Nature of the assay: GAPDH RNA in genotype 1a (H77) replicon cells. Particulars: Homo sapiens, 72 h, read-out: GAPDH EC50. Type of assay: cell-based. The procedure: (§1) HCV genotype 1b, BB7 replicon-containing cell line is derived from a human hepatoma cell line (Huh7). A genotype 1a (H77 isolate; GenBank Accession #AF009606) is derived from replicon-containing cell line (Huh7-1a). The cell lines are cultured at 37° C. and 5% CO2 in Dulbecco's Modified Eagle Media (D-MEM; Invitrogen #11965-084) containing 10% fetal bovine serum (FBS; HyClone #SH300070) supplemented with 1% penicillin/streptomycin (Invitrogen #15140-122), 1% non-essential amino acids (Invitrogen #11140-050), 0.66 mM HEPES buffer, pH 7.55 (Invitrogen #15630-080), and 1 mg/mL G418 (Geneticin®, Invitrogen #11811-031 or #10131-027). Genotype 1a and genotype 1b replicon-containing cell lines contain approximately 1000 and 2000 RNA genome equivalents per cell, respectively, when maintained in a subconfluent monolayer in the presence of 1 mg/mL G418. For compound testing, G418 is eliminated and the FBS concentration is reduced to 2%.
Genotype 1b (BB7) and 1a (H77) cells are seeded in 96-well plates at a sub-confluent density (7000 cells/well) in medium containing 2% FBS without G418. […] The amounts of HCV, rRNA and GAPDH RNAs are quantified using the TaqMan RT-PCR assay.
For orientation: A replicon is a self-replicating genome or part of one, used to study replication in cells.

For the next assay, the system named is HCV 1b BB7 replicon. Nature of the assay: Intracellular antiviral activity in HCV replicon, genotype 1b. Type of assay: cell-based, HCV genotype 1b. Particulars: for EC50: Hepatitis C virus, 72 h, read-out: HCV RNA EC50. As to the method:
as §1
At the end of the incubation period, the replicon-containing cells are lysed in 150 μL of lysis buffer provided in the RNeasy 96 Kit (Qiagen #74181). Total cellular RNA is extracted according to the manufacturer's protocol and eluted in 150 μL of nuclease-free water. […] For duplexed RT-PCR quantifying both HCV RNA and 18S rRNA, 0.08 μM rRNA forward primer, 0.1 μM rRNA reverse primer, and 0.2 μM rRNA probe are added (ABI #4308329). […]
The amounts of the HCV and 18S ribosomal RNAs in each sample are estimated by comparing the Ct cycles with those in the corresponding standard curves. […] The total RNA that is used for preparing the standard curve of the rRNA is quantified by O.D.260 measurement. Compound dose response is measured in a 10-point, 3-fold serial dilution series performed in triplicates and subjected to the same corresponding RT-PCR conditions as described above. […] The amounts of HCV are expressed as HCV RNA copies and μg total RNA using rRNA as the surrogate marker for the quantification. […]

A word on the EC50: it is the concentration that produces a half-maximal response. Take `CNC(=O)c1c(-c2ccc(F)cc2)oc2cc(N(CCO)S(C)(=O)=O)c(C3CC3)cc12` [HCV-796, 5-cyclopropyl-2-(4-fluoro-phenyl)-6-[(2-hydroxy-ethyl)-methanesulfonyl-amino]-benzofuran-3-carboxylic acid methylamide]: the half-maximal effective concentration (EC50) in assay [1] is greater than 5600 nM; in the assay on HCV 1b BB7 replicon it was 1.1 ± 0.2 nM.

For the compound `CC(C)(C)NC(=O)N[C@H](C(=O)N1C[C@H]2[C@@H]([C@H]1C(=O)NC(CC1CCC1)C(=O)C(N)=O)C2(C)C)C(C)(C)C` (stereo partly drawn) [SCH 503034, (1R,5S)—N-[3-amino-1-(cyclobutylmethyl)-2,3-dioxopropyl]-3-[2(S)-[[[(1,1-dimethylethyl)amino]carbonyl]amino]-3,3-dimethyl-1-oxobutyl]-6,6-dimethyl-3-azabicyclo[3.1.0]hexan-2(S)-carboxamide], the values for the concentration giving a half-maximal response (EC50) (in assay [1]; in the assay with HCV 1b BB7 replicon) were greater than 3200 nM and 268 ± 29 nM, respectively. In addition, the “Difference in EC50, changing media daily vs. single dose in 3 days” value with HCV 1b BB7 replicon (replicon, 3 days) is “No difference in EC50”.
